Patent US20240358692A1, “TREATMENT OF SCLERODERMA” (Aisa Pharma, Inc., priority 2023, published 2024)

Tested on: participants with SSc-RP
Assay: Frequency of weekly RP attacks (all attacks; primary endpoint), patient diary
Assay type: in vivo, human
Conditions: for Weekly RP Attacks (All Attacks) Change from Baseline, Mean / Weekly RP Attacks (All Attacks) Change from Baseline, Median / Weekly RP Attacks (All Attacks) Percent Change from Baseline, Mean / Weekly RP Attacks (All Attacks) Percent Change from Baseline, Median / Weekly RP Attacks (All Attacks), Mean / Weekly RP Attacks (All Attacks), Median: ITT Part A; for reduction in weekly frequency of attacks: typical Raynaud attacks
Source text: Percent change from baseline evaluation for frequency of weekly RP attacks were or will be used as the primary efficacy variable. The sponsor-developed participant-informed diary will be used to record data. Frequency of weekly RP attacks is defined as the total number of RP attacks divided by the number of days with available diary data within the last 7 days of each dosing period then multiplied by 7. Total number of RP attacks during the last 7 days of screening period divided by the number of days with available data then multiplied by 7 will be used as baseline for the analysis of all periods. The variable will be calculated as follows: […]
Percent change from baseline evaluation for frequency of weekly RP attacks was and will be the primary efficacy endpoint. Frequency of weekly RP attacks is defined as the total number of RP attacks divided by the number of days with available diary data within the last 7 days of each dosing period then multiplied by 7. Total number of RP attacks during the last 7 days of screening period divided by the number of days with available data then multiplied by 7 will be used as baseline for the analysis of all periods.

[1] = Cilnidipine 10 mg, Baseline RCS stratum 1 (upper half of table)
[2] = Cilnidipine 10 mg, Excluding Outliers, Baseline RCS stratum 1 (upper half of table)
[3] = Cilnidipine 20 mg, Baseline RCS stratum 1 (upper half of table)
[4] = Cilnidipine 20 mg, Excluding Outliers, Baseline RCS stratum 1 (upper half of table)
[5] = Pooled Cilnidipine 10 mg and Cilnidipine 10 mg + Tadalafil 5 mg, Baseline RCS stratum 2 (lower half of table)
[6] = Pooled Cilnidipine 10 mg and Cilnidipine 10 mg + Tadalafil 5 mg, Excluding Outliers, Baseline RCS stratum 1 (upper half of table)
[7] = Pooled Cilnidipine 10 mg and Cilnidipine 10 mg + Tadalafil 5 mg, Excluding Outliers, Baseline RCS stratum 2 (lower half of table)
[8] = Pooled Cilnidipine 10 mg and Cilnidipine 10 mg + Tadalafil 5 mg, n=3, excluding outliers, last 7 days of dosing
[9] = Pooled Cilnidipine 10 mg and Cilnidipine 10 mg + Tadalafil 5 mg, n=3, last 7 days of dosing
[10] = Pooled Cilnidipine 20 mg and Cilnidipine 20 mg + Tadalafil 5 mg, Baseline RCS stratum 1 (upper half of table)
[11] = Pooled Cilnidipine 20 mg and Cilnidipine 20 mg + Tadalafil 5 mg, Excluding Outliers, Baseline RCS stratum 1 (upper half of table)
[12] = Pooled Cilnidipine 20 mg and Cilnidipine 20 mg + Tadalafil 5 mg, Excluding Outliers, Baseline RCS stratum 2 (lower half of table)
[13] = Pooled Cilnidipine 20 mg and Cilnidipine 20 mg + Tadalafil 5 mg, n=4, excluding outliers, last 7 days of dosing
[14] = Pooled Cilnidipine 20 mg and Cilnidipine 20 mg + Tadalafil 5 mg, n=4, last 7 days of dosing
[15] = Pooled Cilnidipine arms, n=3, excluding outliers, last 7 days of dosing
[16] = Pooled Cilnidipine arms, n=3, last 7 days of dosing
[17] = Pooled Cilnidipine, Baseline RCS stratum 1 (upper half of table)
[18] = Pooled Cilnidipine, Excluding Outliers, Baseline RCS stratum 1 (upper half of table)
[19] = cilnidipine 10 mg daily, n=1, excluding outliers, last 7 days of dosing
[20] = cilnidipine 10 mg daily, n=1, last 7 days of dosing
[21] = cilnidipine 20 mg daily, n=2, excluding outliers, last 7 days of dosing
[22] = cilnidipine 20 mg daily, n=2, last 7 days of dosing
[23] = Tadalafil 5 mg, Baseline RCS stratum 2 (lower half of table)
[24] = tadalafil 5 mg daily, n=1, excluding outliers, last 7 days of dosing
[25] = tadalafil 5 mg daily, n=2, last 7 days of dosing

COCCOC(=O)C1=C(C)NC(C)=C(C(=O)OC/C=C/c2ccccc2)C1c1cccc([N+](=O)[O-])c1 (stereo not shown) [Cilnidipine]
Weekly RP Attacks (All Attacks) Change from Baseline, Mean [1]: −9.00
Weekly RP Attacks (All Attacks) Change from Baseline, Median [1]: −9.00
Weekly RP Attacks (All Attacks) Percent Change from Baseline, Mean [1]: −28.13%
Weekly RP Attacks (All Attacks) Percent Change from Baseline, Median [1]: −28.13%
Weekly RP Attacks (All Attacks), Mean [1]: 23.00
Weekly RP Attacks (All Attacks), Median [1]: 23.00
Weekly RP Attacks (All Attacks) Change from Baseline, Mean [2]: −9.00
Weekly RP Attacks (All Attacks) Change from Baseline, Median [2]: −9.00
Weekly RP Attacks (All Attacks) Percent Change from Baseline, Mean [2]: −28.13%
Weekly RP Attacks (All Attacks) Percent Change from Baseline, Median [2]: −28.13%
Weekly RP Attacks (All Attacks), Mean [2]: 23.00
Weekly RP Attacks (All Attacks), Median [2]: 23.00
Weekly attack frequency (change) (Cilnidipine 20 mg (n = 3)): −43%
Weekly RP Attacks (All Attacks) Change from Baseline, Mean [3]: −6.67
Weekly RP Attacks (All Attacks) Change from Baseline, Median [3]: −6.67
Weekly RP Attacks (All Attacks) Percent Change from Baseline, Mean [3]: −45.71%
Weekly RP Attacks (All Attacks) Percent Change from Baseline, Median [3]: −45.71%
Weekly RP Attacks (All Attacks), Mean [3]: 8.00
Weekly RP Attacks (All Attacks), Median [3]: 8.00
Weekly RP Attacks (All Attacks) Change from Baseline, Mean [4]: −6.67
Weekly RP Attacks (All Attacks) Change from Baseline, Median [4]: −6.67
Weekly RP Attacks (All Attacks) Percent Change from Baseline, Mean [4]: −45.71%
Weekly RP Attacks (All Attacks) Percent Change from Baseline, Median [4]: −45.71%
Weekly RP Attacks (All Attacks), Mean [4]: 8.00
Weekly RP Attacks (All Attacks), Median [4]: 8.00
Weekly RP Attacks (All Attacks) Change from Baseline, Median [5]: −5.00
Weekly RP Attacks (All Attacks), Median [5]: 6.00
Weekly RP Attacks (All Attacks) Change from Baseline, Mean [6]: −6.50
Weekly RP Attacks (All Attacks) Change from Baseline, Median [6]: −6.50
Weekly RP Attacks (All Attacks) Percent Change from Baseline, Mean [6]: −36.28%
Weekly RP Attacks (All Attacks) Percent Change from Baseline, Median [6]: −36.28%
Weekly RP Attacks (All Attacks), Mean [6]: 14.00
Weekly RP Attacks (All Attacks), Median [6]: 14.00
Weekly RP Attacks (All Attacks) Change from Baseline, Mean [7]: −5.00
Weekly RP Attacks (All Attacks) Change from Baseline, Median [7]: −5.00
Weekly RP Attacks (All Attacks) Percent Change from Baseline, Mean [7]: −45.45%
Weekly RP Attacks (All Attacks) Percent Change from Baseline, Median [7]: −45.45%
Weekly RP Attacks (All Attacks), Mean [7]: 6.00
Weekly RP Attacks (All Attacks), Median [7]: 6.00
Weekly RP Attacks (All Attacks) Change from Baseline, Mean [8]: −6.00
Weekly RP Attacks (All Attacks) Change from Baseline, Median [8]: −5.00
Weekly RP Attacks (All Attacks) Percent Change from Baseline, Mean [8]: −39.34%
Weekly RP Attacks (All Attacks) Percent Change from Baseline, Median [8]: −44.44%
Weekly RP Attacks (All Attacks), Mean [8]: 11.33
Weekly RP Attacks (All Attacks), Median [8]: 6.00
Weekly RP Attacks (All Attacks) Change from Baseline, Mean [9]: −6.00
Weekly RP Attacks (All Attacks) Change from Baseline, Median [9]: −5.00
Weekly RP Attacks (All Attacks) Percent Change from Baseline, Mean [9]: −39.34%
Weekly RP Attacks (All Attacks) Percent Change from Baseline, Median [9]: −44.44%
Weekly RP Attacks (All Attacks), Mean [9]: 11.33
Weekly RP Attacks (All Attacks), Median [9]: 6.00
Weekly RP Attacks (All Attacks) Percent Change from Baseline, Median [10]: −45.00%
Weekly RP Attacks (All Attacks), Median [10]: 11.00
Weekly RP Attacks (All Attacks), Median (Pooled Cilnidipine 20 mg and Cilnidipine 20 mg + Tadalafil 5 mg, Baseline RCS stratum 2 (lower half of table)): 11.00
Weekly RP Attacks (All Attacks) Change from Baseline, Mean [11]: −5.78
Weekly RP Attacks (All Attacks) Percent Change from Baseline, Mean [11]: −37.49%
Weekly RP Attacks (All Attacks) Percent Change from Baseline, Median [11]: −45.00%
Weekly RP Attacks (All Attacks), Mean [11]: 10.33
Weekly RP Attacks (All Attacks), Median [11]: 11.00
Weekly RP Attacks (All Attacks) Change from Baseline, Mean [12]: −1.83
Weekly RP Attacks (All Attacks) Change from Baseline, Median [12]: −1.83
Weekly RP Attacks (All Attacks) Percent Change from Baseline, Mean [12]: −14.29%
Weekly RP Attacks (All Attacks) Percent Change from Baseline, Median [12]: −14.29%
Weekly RP Attacks (All Attacks), Mean [12]: 11.00
Weekly RP Attacks (All Attacks), Median [12]: 11.00
Weekly RP Attacks (All Attacks) Change from Baseline, Mean [13]: −4.79
Weekly RP Attacks (All Attacks) Change from Baseline, Median [13]: −4.17
Weekly RP Attacks (All Attacks) Percent Change from Baseline, Mean [13]: −31.69%
Weekly RP Attacks (All Attacks) Percent Change from Baseline, Median [13]: −33.03%
Weekly RP Attacks (All Attacks), Mean [13]: 10.50
Weekly RP Attacks (All Attacks), Median [13]: 11.00
Weekly RP Attacks (All Attacks) Change from Baseline, Mean [14]: −4.79
Weekly RP Attacks (All Attacks) Change from Baseline, Median [14]: −4.17
Weekly RP Attacks (All Attacks) Percent Change from Baseline, Mean [14]: −31.69%
Weekly RP Attacks (All Attacks) Percent Change from Baseline, Median [14]: −33.03%
Weekly RP Attacks (All Attacks), Mean [14]: 10.50
Weekly RP Attacks (All Attacks), Median [14]: 11.00
Weekly attack frequency (change) (Pooled Cilnidipine (n = 7)): −41%
Weekly RP Attacks (All Attacks) Change from Baseline, Mean [15]: −7.44
Weekly RP Attacks (All Attacks) Change from Baseline, Median [15]: −9.00
Weekly RP Attacks (All Attacks) Percent Change from Baseline, Mean [15]: −39.85%
Weekly RP Attacks (All Attacks) Percent Change from Baseline, Median [15]: −45.00%
Weekly RP Attacks (All Attacks), Mean [15]: 13.00
Weekly RP Attacks (All Attacks), Median [15]: 11.00
Weekly RP Attacks (All Attacks) Change from Baseline, Median [16]: −9.00
Weekly RP Attacks (All Attacks) Percent Change from Baseline, Median [16]: −45.00%
Weekly RP Attacks (All Attacks), Mean [16]: 13.00
Weekly RP Attacks (All Attacks), Median [16]: 11.00
Weekly RP Attacks (All Attacks) Change from Baseline, Mean [17]: −7.44
Weekly RP Attacks (All Attacks) Change from Baseline, Median [17]: −9.00
Weekly RP Attacks (All Attacks) Percent Change from Baseline, Mean [17]: −39.85%
Weekly RP Attacks (All Attacks) Percent Change from Baseline, Median [17]: −45.00%
Weekly RP Attacks (All Attacks), Mean [17]: 13.00
Weekly RP Attacks (All Attacks), Median [17]: 11.00
Weekly RP Attacks (All Attacks) Change from Baseline, Mean [18]: −7.44
Weekly RP Attacks (All Attacks) Change from Baseline, Median [18]: −9.00
Weekly RP Attacks (All Attacks) Percent Change from Baseline, Mean [18]: −39.85%
Weekly RP Attacks (All Attacks) Percent Change from Baseline, Median [18]: −45.00%
Weekly RP Attacks (All Attacks), Mean [18]: 13.00
Weekly RP Attacks (All Attacks), Median [18]: 11.00
Weekly RP Attacks (All Attacks) Change from Baseline, Mean [19]: −9.00
Weekly RP Attacks (All Attacks) Change from Baseline, Median [19]: −9.00
Weekly RP Attacks (All Attacks), Mean [19]: 23.00
Weekly RP Attacks (All Attacks), Median [19]: 23.00
Weekly RP Attacks (All Attacks) Change from Baseline, Mean [20]: −9.00
Weekly RP Attacks (All Attacks) Change from Baseline, Median [20]: −9.00
Weekly RP Attacks (All Attacks), Mean [20]: 23.00
Weekly RP Attacks (All Attacks), Median [20]: 23.00
Weekly RP Attacks (All Attacks) Change from Baseline, Mean [21]: −6.67
Weekly RP Attacks (All Attacks) Change from Baseline, Median [21]: −6.67
Weekly RP Attacks (All Attacks) Percent Change from Baseline, Mean [21]: −45.71%
Weekly RP Attacks (All Attacks) Percent Change from Baseline, Median [21]: −45.71%
Weekly RP Attacks (All Attacks), Mean [21]: 8.00
Weekly RP Attacks (All Attacks), Median [21]: 8.00
Weekly RP Attacks (All Attacks), Mean [22]: 8.00
Weekly RP Attacks (All Attacks), Median [22]: 8.00
reduction in weekly frequency of attacks (cilnidipine 10 mg (dose response, n=3)): 28%
reduction in weekly frequency of attacks (cilnidipine 20 mg (dose response, n=3)): 46%

CN1CC(=O)N2[C@H](c3ccc4c(c3)OCO4)c3[nH]c4ccccc4c3C[C@@H]2C1=O [Tadalafil]
Weekly RP Attacks (All Attacks) Change from Baseline, Mean [23]: 3.00
Weekly RP Attacks (All Attacks) Change from Baseline, Median [23]: 3.00
Weekly RP Attacks (All Attacks), Mean [23]: 13.00
Weekly RP Attacks (All Attacks), Median [23]: 13.00
Weekly RP Attacks (All Attacks) Change from Baseline, Mean [24]: 6.00
Weekly RP Attacks (All Attacks) Change from Baseline, Median [24]: 6.00
Weekly RP Attacks (All Attacks), Mean [24]: 19.00
Weekly RP Attacks (All Attacks), Median [24]: 19.00
Weekly RP Attacks (All Attacks) Change from Baseline, Mean [25]: 3.00
Weekly RP Attacks (All Attacks) Change from Baseline, Median [25]: 3.00
Weekly RP Attacks (All Attacks), Mean [25]: 13.00
Weekly RP Attacks (All Attacks), Median [25]: 13.00
